Assay type in all cases: cell-based
One test concerns the target T1, M1 (Homo sapiens, UniProt P11229).
T1 sequence (P11229 1-460): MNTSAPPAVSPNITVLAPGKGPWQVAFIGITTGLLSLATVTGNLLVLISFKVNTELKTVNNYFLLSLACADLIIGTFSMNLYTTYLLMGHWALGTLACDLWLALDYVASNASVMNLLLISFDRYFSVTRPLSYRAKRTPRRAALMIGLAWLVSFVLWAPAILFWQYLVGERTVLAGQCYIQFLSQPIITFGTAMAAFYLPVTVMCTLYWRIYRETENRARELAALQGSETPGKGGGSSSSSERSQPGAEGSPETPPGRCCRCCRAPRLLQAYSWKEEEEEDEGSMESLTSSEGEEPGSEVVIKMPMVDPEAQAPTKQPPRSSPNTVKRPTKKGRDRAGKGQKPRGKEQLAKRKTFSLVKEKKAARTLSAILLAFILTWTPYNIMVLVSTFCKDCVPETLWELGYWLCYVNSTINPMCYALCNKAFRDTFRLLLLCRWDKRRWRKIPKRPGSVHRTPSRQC
Briefly: GPCR Calcium Flux assay (FLIPR tetra, Eurofins), M1. To be noted: single concentration of 10 uM; read-out: inhibition rate (%) M1. As to the method:
(§1) In order to confirm whether the compounds prepared in the above Examples act as an agonist or antagonist against GPCR Target, Calcium Flux assay was performed in an assay plate in which the compounds prepared in the Examples, vehicle controls, and reference compounds were added, using a Fluorometric imaging plate reader (FLIPR tetra) equipment.
(§2) Calcium Flux assay was evaluated by entrusting the GPCR profiler assay in Safety panel assays with Eurofins. By using the Fluo-8AM calcium dye, excitation was measured at a wavelength in the range of 470 to 495 nm and Emission was measured at a wavelength in the range of 515-575 nm. GPCR Assay Buffer for Calcium Flux assay was prepared by adding 20 mM of HEPES and 2.5 mM of Probenecid to Hanks Balanced Salt Solution (HBSS) to have pH 7.4. The Compounds of Examples for evaluation of the GPCR were diluted with DMSO at a concentration of 10 mM to make a stock and then prepared by diluting in the GPCR Assay Buffer at the concentration equivalent to three times the final concentration. First, for the evaluation of GPCRs, the inhibitory activity of the compounds of the Examples was evaluated at a single concentration of 10 uM, and then the respective selected targets were four fold-diluted from 10 uM to the low side to calculate 50% inhibitory concentration (IC50), prepared at the total 8 concentrations of 10, 2.5, 0.62, 0.15, 0.04, 0.01, 0.0024, 0.0006 uM, and Calcium Flux assay for GPCR was conducted. In order to evaluate the agonist and antagonist, % inhibition rate against GPCR activity before and after treatment of the compounds and the inhibitory activity of the compounds of the Examples were determined.
(§3) As a result, when the efficacy of […] and acetylcholine of the compounds prepared in the Examples was 100%, the inhibition rate (%) at a single concentration of 10 uM was evaluated and shown in Table 8.
On the technique in general: Calcium flux is commonly read through the fluorescence of an indicator in the cells.

A further test concerns the target 5-HT2A (Homo sapiens, UniProt P28223). The experiment in a line: GPCR Calcium Flux assay (FLIPR tetra, Eurofins), 5-HT2A. Particulars: for inhibition at 10 µM: single concentration of 10 uM, read-out: inhibition rate (%) 5-HT2A. As to the method:
as §1, §2, §3

In another test the target is T2, M2 (Homo sapiens, UniProt P08172).
T2 sequence (P08172 1-466): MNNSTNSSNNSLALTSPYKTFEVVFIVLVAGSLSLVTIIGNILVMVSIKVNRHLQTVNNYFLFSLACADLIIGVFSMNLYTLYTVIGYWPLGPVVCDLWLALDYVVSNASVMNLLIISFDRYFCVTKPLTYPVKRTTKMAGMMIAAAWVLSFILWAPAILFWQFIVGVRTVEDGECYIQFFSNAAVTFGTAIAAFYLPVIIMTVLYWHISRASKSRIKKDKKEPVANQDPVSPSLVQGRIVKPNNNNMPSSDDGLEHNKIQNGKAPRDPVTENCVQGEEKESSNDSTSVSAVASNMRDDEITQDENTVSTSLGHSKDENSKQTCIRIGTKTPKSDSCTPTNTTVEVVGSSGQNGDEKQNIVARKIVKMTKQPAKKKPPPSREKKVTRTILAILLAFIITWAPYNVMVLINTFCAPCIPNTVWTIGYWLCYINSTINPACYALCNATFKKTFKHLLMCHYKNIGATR
Briefly: GPCR Calcium Flux assay (FLIPR tetra, Eurofins), M2. To be noted: single concentration of 10 uM; read-out: inhibition rate (%) M2. As to the method: as §1, §2, §3

Where a name gives a salt, the structure may show the parent alone.

5-HT2A, sequence (P28223 whole entry): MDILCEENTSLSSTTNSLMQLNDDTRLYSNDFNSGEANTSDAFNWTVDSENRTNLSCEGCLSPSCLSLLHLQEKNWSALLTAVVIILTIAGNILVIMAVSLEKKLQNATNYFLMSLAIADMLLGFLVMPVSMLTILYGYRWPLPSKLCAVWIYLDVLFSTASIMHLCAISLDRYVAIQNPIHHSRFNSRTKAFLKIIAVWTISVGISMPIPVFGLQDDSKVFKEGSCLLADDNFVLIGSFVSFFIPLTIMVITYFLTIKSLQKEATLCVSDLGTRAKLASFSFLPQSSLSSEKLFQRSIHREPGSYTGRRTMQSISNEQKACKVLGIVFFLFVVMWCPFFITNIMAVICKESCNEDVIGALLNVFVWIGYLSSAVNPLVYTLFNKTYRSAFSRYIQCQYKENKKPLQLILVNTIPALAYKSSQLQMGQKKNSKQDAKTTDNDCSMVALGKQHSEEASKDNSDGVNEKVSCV

In general, inhibition refers to the relative decrease from the control value, in per cent. On to `CNCc1cn(S(=O)(=O)c2cccc(C(F)(F)F)c2)c(-c2cc(F)ccc2F)c1OC` [Example 32, 1-(5-(2,5-difluorophenyl)-1-((3-trifluoromethylphenyl)sulfonyl)-4-methoxy-1H-pyrrol-3-yl)-N-methylmethanamine hydrochloride], for which the inhibition at 10 µM was found to be 52.6% at M1, 10.6% at 5-HT2A and 10.8% at M2.

In the case of `CNCc1cn(S(=O)(=O)c2cccc(OC)c2)c(-c2c(F)cccc2F)c1OC` [Example 17, 1-(5-(2,6-difluorophenyl)-1-((3-methoxyphenyl)sulfonyl)-4-methoxy-1H-pyrrol-3-yl)-N-methylmethanamine hydrochloride], the inhibition at 10 µM at M1 is 85.2%; on 5-HT2A, 102%; at M2, 60.1%. At 5-HT2A (8 concentrations 10 to 0.0006 uM, read-out: 50% inhibitory concentration (IC50) 5-HT2A), the IC50 was 2200 nM.

Consider `CNCc1cn(S(=O)(=O)c2cccc(OC)c2)c(-c2ccccc2Cl)c1OC` [Example 5, 1-(5-(2-chlorophenyl)-4-methoxy-1-((3-methoxyphenyl)sulfonyl)-1H-pyrrol-3-yl)-N-methylmethanamine hydrochloride], for which the results for the inhibition at 10 µM on M1, on 5-HT2A and on M2 were 93.7%, 69.1% and 75.1%, respectively.
